Laboratory results reported in US8410153B2, “Naphthalene isoxazoline invertebrate pest control agents” (E.I. du Pont de Nemours and Company, priority 2007, dated 2013).

Key:
Type in all cases: in vivo
[1] = tested on: diamondback moth (Plutella xylostella); test: Test A: control of diamondback moth on radish plant, foliar spray; details: sprayed at 50 ppm, held 6 days
Description: For evaluating control of diamondback moth (Plutella xylostella) the test unit consisted of a small open container with a 12-14-day-old radish plant inside. This was pre-infested with about 50 neonate larvae that were dispensed into the test unit via corncob grits using a bazooka inoculator. The larvae moved onto the test plant after being dispensed into the test unit.
(§1) Test compounds were formulated using a solution containing 10% acetone, 90% water and 300 ppm X-77™ Spreader Lo-Foam Formula non-ionic surfactant containing alkylarylpolyoxyethylene, free fatty acids, glycols and isopropanol (Loveland Industries, Inc. Greeley, Colo., USA). The formulated compounds were applied in 1 mL of liquid through a SUJ2 atomizer nozzle with ⅛ JJ custom body (Spraying Systems Co. Wheaton, Ill., USA) positioned 1.27 cm (0.5 inches) above the top of each test unit. All experimental compounds in these tests were sprayed at 50 ppm, and the test was replicated three times. After spraying of the formulated test compound, each test unit was allowed to dry for 1 h and then a black, screened cap was placed on top. The test units were held for 6 days in a growth chamber at 25° C. and 70% relative humidity. Plant feeding damage was then visually assessed based on foliage consumed, and a pest mortality rating was also counted and calculated for each test unit.

[2] = tested on: fall armyworm (Spodoptera frugiperda); test: Test B: control of fall armyworm on corn (maize) plant, foliar spray; details: sprayed at 50 ppm
Description: as §1
For evaluating control of fall armyworm (Spodoptera frugiperda) the test unit consisted of a small open container with a 4-5-day-old corn (maize) plant inside. This was pre-infested (using a core sampler) with 10-15 1-day-old larvae on a piece of insect diet. Test compounds were formulated and sprayed at 50 ppm as described for Test A and replicated three times. After spraying, the test units were maintained in a growth chamber and then the control efficacy was rated for each test unit as described for Test A.

[3] = tested on: western flower thrips (Frankliniella occidentalis); test: Test E: control of western flower thrips on Soleil bean plant, contact and/or systemic; details: sprayed at 50 ppm; held 6 days
Description: as §1
For evaluating control of the western flower thrips (Frankliniella occidentalis) through contact and/or systemic means, the test unit consisted of a small open container with a 5-7-day-old Soleil Bean plant inside. Test compounds were formulated and sprayed as described for Test A. All experimental compounds in these tests were sprayed at 250 or 50 ppm as noted, and the test was replicated three times. After spraying, the test units were allowed to dry for 1 h, 22-27 adult thrips were added to each unit and then a black, screened cap was placed on top. The test units were held for 6 days at 25° C. and 45-55% relative humidity. A mortality rating was assessed along with a plant damage rating for each test unit.

Row | Compound | levels of control efficacy (20% or less feeding damage or 80% or more mortality) [1] | levels of control efficacy (20% or less feeding damage or 80% or more mortality) [2] | levels of control efficacy (20% or less feeding damage or 80% or more mortality) [3]
1 | CCNC(=O)CNC(=O)c1ccc(C2=NOC(c3cc(Br)cc(C(F)(F)F)c3)(C(F)(F)F)C2)c2ccccc12 (racemic) [Compound 144] | very good to excellent | very good to excellent | very good to excellent
2 | O=C(NCO)c1ccc(C2=NOC(c3cc(Cl)cc(Cl)c3)(C(F)(F)F)C2)c2ccccc12 (stereo not shown) [Compound 82] | very good to excellent | very good to excellent | 
3 | O=C(CNC(=O)c1ccc(C2=NOC(c3cccc(OC(F)(F)F)c3)(C(F)(F)F)C2)c2ccccc12)NCC(F)(F)F (stereo not shown) [Compound 72] | very good to excellent | very good to excellent | 
4 | O=C(NCCO)c1ccc(C2=NOC(c3cc(C(F)(F)F)cc(C(F)(F)F)c3)(C(F)(F)F)C2)c2ccccc12 (stereo not shown) [Compound 69] | very good to excellent | very good to excellent | 
5 | O=C(CNC(=O)c1ccc(C2=NOC(c3cc(Cl)cc(Cl)c3)(C(F)(F)F)C2)c2ccccc12)NCCCl (stereo not shown) [Compound 10] | very good to excellent | very good to excellent | 
6 | CC(C)SCCCNC(=O)c1ccc(C2=NOC(c3cccc(C(F)(F)F)c3)(C(F)(F)F)C2)c2ccccc12 (racemic) [Compound 56] | very good to excellent | very good to excellent | 
7 | CC(NC(=O)CNC(=O)c1ccc(C2=NOC(c3cc(C(F)(F)F)cc(C(F)(F)F)c3)(C(F)(F)F)C2)c2ccccc12)C(F)(F)F (stereo not shown) [Compound 91] |  | very good to excellent | very good to excellent
8 | CC(NC(=O)CNC(=O)c1ccc(C2=NOC(c3cc(Cl)cc(C(F)(F)F)c3)(C(F)(F)F)C2)c2ccccc12)C(F)(F)F (stereo not shown) [Compound 113] | very good to excellent | very good to excellent | 
9 | CC(O)(CNC(=O)c1ccc(C2=NOC(c3cccc(C(F)(F)F)c3)(C(F)(F)F)C2)c2ccccc12)C(F)(F)F (mixture of isomers) [Compound 45] | very good to excellent | very good to excellent | 
10 | CC(NC(=O)c1ccc(C2=NOC(c3cc(Cl)cc(C(F)(F)F)c3)(C(F)(F)F)C2)c2ccccc12)C(=O)NCC(F)(F)F (mixture of isomers) [Compound 127] |  | very good to excellent | 
11 | CSCCNC(=O)c1ccc(C2=NOC(c3cccc(OC(F)(F)F)c3)(C(F)(F)F)C2)c2ccccc12 (stereo not shown) [Compound 71] | very good to excellent | very good to excellent | 
12 | O=C(CNC(=O)c1ccc(C2=NOC(c3cc(Cl)cc(Cl)c3)(C(F)(F)F)C2)c2ccccc12)NCC(F)(F)C(F)(F)C(F)(F)F (stereo not shown) [Compound 13] | very good to excellent | very good to excellent | 
13 | CCNC(=O)C(C)NC(=O)c1ccc(C2=NOC(c3cc(Cl)cc(C(F)(F)F)c3)(C(F)(F)F)C2)c2ccccc12 (mixture of isomers) [Compound 126] |  | very good to excellent | 
14 | CC(CO)NC(=O)c1ccc(C2=NOC(c3cc(C(F)(F)F)cc(C(F)(F)F)c3)(C(F)(F)F)C2)c2ccccc12 (stereo not shown) [Compound 68] | very good to excellent | very good to excellent | 
15 | CC(C)NC(=O)C(C)NC(=O)c1ccc(C2=NOC(c3cc(Cl)cc(C(F)(F)F)c3)(C(F)(F)F)C2)c2ccccc12 (mixture of isomers) [Compound 128] |  | very good to excellent | 
16 | CCC(O)CNC(=O)c1ccc(C2=NOC(c3cccc(C(F)(F)F)c3)(C(F)(F)F)C2)c2ccccc12 (stereo not shown) [Compound 64] | very good to excellent | very good to excellent | 
17 | CCCNC(=O)C(C)NC(=O)c1ccc(C2=NOC(c3cc(Cl)cc(C(F)(F)F)c3)(C(F)(F)F)C2)c2ccccc12 (mixture of isomers) [Compound 129] |  | very good to excellent | 
18 | CNC(=O)CNC(=O)c1ccc(C2=NOC(c3cc(Cl)cc(C(F)(F)F)c3)(C(F)(F)F)C2)c2ccccc12 (stereo not shown) [Compound 116] | very good to excellent | very good to excellent | 
19 | CC(NC(=O)c1ccc(C2=NOC(c3cc(Cl)cc(C(F)(F)F)c3)(C(F)(F)F)C2)c2ccccc12)C(=O)NC(C)C(F)(F)F (stereo not shown) [Compound 115] | very good to excellent | very good to excellent | 
20 | CCC(CO)NC(=O)c1ccc(C2=NOC(c3cccc(C(F)(F)F)c3)(C(F)(F)F)C2)c2ccccc12 (mixture of isomers) [Compound 46] | very good to excellent | very good to excellent | 
21 | CC(C)SCCNC(=O)c1ccc(C2=NOC(c3cccc(C(F)(F)F)c3)(C(F)(F)F)C2)c2ccccc12 (racemic) [Compound 55] | very good to excellent | very good to excellent | 
22 | O=C(CNC(=O)c1ccc(C2=NOC(c3cc(Cl)cc(Cl)c3)(C(F)(F)F)C2)c2ccccc12)NCC(F)(F)C(F)(F)F (stereo not shown) [Compound 14] | very good to excellent | very good to excellent | 
23 | CNC(=O)C(C)NC(=O)c1ccc(C2=NOC(c3cc(Cl)cc(C(F)(F)F)c3)(C(F)(F)F)C2)c2ccccc12 (mixture of isomers) [Compound 125] |  | very good to excellent | 
24 | O=C(CNC(=O)c1ccc(C2=NOC(c3cccc(Br)c3)(C(F)(F)F)C2)c2ccccc12)NCC(F)(F)F (stereo not shown) [Compound 70] | very good to excellent | very good to excellent | 
25 | C[S+]([O-])CCNC(=O)c1ccc(C2=NOC(c3cc(Cl)cc(C(F)(F)F)c3)(C(F)(F)F)C2)c2ccccc12 (stereo not shown) [Compound 114] | very good to excellent | very good to excellent | 
